# Measurements taken from PubChem BioAssay AID256 (DTP/NCI, 2004).
# Values joined by “and” are separate entries in the source; they are usually repeats but may differ in a detail not shown here. Identical values can stand only once. Inconclusive results and toxic doses are left out.
# System: CD2F1 mice, L1210 leukemia ip, survival T/C
# Assay: NCI In Vivo Anticancer Drug Screen. Data for tumor model L1210 Leukemia (intraperitoneal) in CD2F1 (CDF1) mice
# Details: higher = longer survival
# Procedure, shortened: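 Antitumor effect is scored in animals hosting a serially transplanted tumor. Values compare compound-dosed animals against vehicle-only controls as a simple quotient.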
# [1] = endpoint: mean survival time, dose: 100.0 mg/kg/injection, schedule: Q01DX001 (ip), vehicle: Klucel (hydroxypropylcellulose) (HPC)
# [2] = endpoint: mean survival time, dose: 200.0 mg/kg/injection, schedule: Q01DX001 (ip), vehicle: Klucel (hydroxypropylcellulose) (HPC)
# [3] = endpoint: mean survival time, dose: 100.0 mg/kg/injection, schedule: Q04DX003 (ip), vehicle: saline with Tween-80
# [4] = endpoint: mean survival time, dose: 200.0 mg/kg/injection, schedule: Q04DX003 (ip), vehicle: saline with Tween-80
# [5] = endpoint: mean survival time, dose: 400.0 mg/kg/injection, schedule: Q04DX003 (ip), vehicle: saline with Tween-80
# [6] = endpoint: mean survival time, dose: 100.0 mg/kg/injection, schedule: Q01DX009 (ip), vehicle: saline with Tween-80
# [7] = endpoint: mean survival time, dose: 200.0 mg/kg/injection, schedule: Q01DX009 (ip), vehicle: saline with Tween-80
# [8] = endpoint: mean survival time, dose: 400.0 mg/kg/injection, schedule: Q01DX009 (ip), vehicle: saline with Tween-80
# [9] = endpoint: mean survival time, dose: 25.0 mg/kg/injection, schedule: Q04DX002 (ip), vehicle: saline with Tween-80
# [10] = endpoint: mean survival time, dose: 50.0 mg/kg/injection, schedule: Q04DX002 (ip), vehicle: saline with Tween-80
# [11] = endpoint: mean survival time, dose: 6.25 mg/kg/injection, schedule: Q01DX009 (ip), vehicle: saline with Tween-80
# [12] = endpoint: mean survival time, dose: 25.0 mg/kg/injection, schedule: Q01DX009 (ip), vehicle: saline with Tween-80
# [13] = endpoint: mean survival time, dose: 50.0 mg/kg/injection, schedule: Q01DX009 (ip), vehicle: saline with Tween-80
# [14] = endpoint: mean survival time, dose: 100.0 mg/kg/injection, schedule: Q04DX002 (ip), vehicle: saline with Tween-80
# [15] = endpoint: mean survival time, dose: 200.0 mg/kg/injection, schedule: Q04DX002 (ip), vehicle: saline with Tween-80
# [16] = endpoint: mean survival time, dose: 25.0 mg/kg/injection, schedule: Q01DX001 (ip), vehicle: saline with Tween-80
# [17] = endpoint: mean survival time, dose: 50.0 mg/kg/injection, schedule: Q01DX001 (ip), vehicle: saline with Tween-80
# [18] = endpoint: mean survival time, dose: 100.0 mg/kg/injection, schedule: Q01DX001 (ip), vehicle: saline with Tween-80
smiles,measurement,setting,value
O=c1scc(-c2ccc(Br)cc2)s1,T/C,"endpoint: mean survival time, dose: 12.5 mg/kg/injection, schedule: Q01DX009 (ip), vehicle: Klucel (hydroxypropylcellulose) (HPC)",93 % of control
same,T/C,"endpoint: mean survival time, dose: 25.0 mg/kg/injection, schedule: Q01DX009 (ip), vehicle: Klucel (hydroxypropylcellulose) (HPC)",100 % of control
CCC1(CC)NC(=O)N(CCOS(C)(=O)=O)C1=O,T/C,"endpoint: mean survival time, dose: 50.0 mg/kg/injection, schedule: Q01DX001 (ip), vehicle: Klucel (hydroxypropylcellulose) (HPC)",110 % of control
same,T/C,[1],93 % of control
same,T/C,[2],93 % of control
CC(O)c1ccc[n+](CCc2cn(C)c3ccccc23)c1 (centres undefined),T/C,"endpoint: mean survival time, dose: 6.25 mg/kg/injection, schedule: Q01DX009 (ip), vehicle: saline",97 % of control
same,T/C,"endpoint: mean survival time, dose: 6.25 mg/kg/injection, schedule: Q04DX003 (ip), vehicle: saline",94 % of control
same,T/C,"endpoint: mean survival time, dose: 12.5 mg/kg/injection, schedule: Q01DX009 (ip), vehicle: saline",96 % of control
same,T/C,"endpoint: mean survival time, dose: 12.5 mg/kg/injection, schedule: Q04DX003 (ip), vehicle: saline",92 % of control
same,T/C,"endpoint: mean survival time, dose: 25.0 mg/kg/injection, schedule: Q01DX009 (ip), vehicle: saline",105 % of control
same,T/C,"endpoint: mean survival time, dose: 25.0 mg/kg/injection, schedule: Q04DX003 (ip), vehicle: saline",92 % of control
Cc1ccc(C2(c3ccccc3)c3ccccc3C(=O)N2c2ccccc2)cc1 (centres undefined),T/C,[3],97 % of control
same,T/C,[4],101 % of control
same,T/C,[5],103 % of control
Cc1cccc(NC(=O)c2cccc(Cl)c2)c1C,T/C,[6],91 % of control
same,T/C,[3],96 % of control
same,T/C,[7],96 % of control
same,T/C,[4],96 % of control
same,T/C,[8],91 % of control
same,T/C,[5],96 % of control
Nc1nc(N)c(N=Nc2cccc(S(=O)(=O)O)c2)c(N)n1,T/C,[3],107 % of control
same,T/C,[4],101 % of control
same,T/C,[5],101 % of control
COC(=O)c1nc2ccccc2nc1C(=O)OC,T/C,[6],103 % of control
same,T/C,[3],100 % of control
same,T/C,[7],103 % of control
same,T/C,[4],94 % of control
same,T/C,[8],102 % of control
same,T/C,[5],96 % of control
Oc1ccc(N=Cc2ccccc2O)cc1,T/C,"endpoint: mean survival time, dose: 178.0 mg/kg/injection, schedule: Q04DX003 (ip), vehicle: carboxymethylcellulose (CMC)",101 % of control
same,T/C,"endpoint: mean survival time, dose: 267.0 mg/kg/injection, schedule: Q04DX003 (ip), vehicle: carboxymethylcellulose (CMC)",102 % of control
same,T/C,"endpoint: mean survival time, dose: 400.0 mg/kg/injection, schedule: Q04DX003 (ip), vehicle: carboxymethylcellulose (CMC)",98 % of control
same,T/C,"endpoint: mean survival time, dose: 600.0 mg/kg/injection, schedule: Q04DX003 (ip), vehicle: carboxymethylcellulose (CMC)",101 % of control
O=C(O)c1ccc(O)cc1C(=O)O.[NH-]C1CCCCC1[NH-].[Pt+2],T/C,"endpoint: mean survival time, dose: 1.17 mg/kg/injection, schedule: Q04DX003 (ip), vehicle: other",168 % of control
same,T/C,"endpoint: mean survival time, dose: 9.38 mg/kg/injection, schedule: Q04DX003 (ip), vehicle: other",194 % of control
same,T/C,"endpoint: mean survival time, dose: 18.75 mg/kg/injection, schedule: Q04DX003 (ip), vehicle: other",189 % of control
CC(C)CC(C)OP(=S)(S)OC(C)CC(C)C.[Cd] (centres undefined),T/C,"endpoint: mean survival time, dose: 6.25 mg/kg/injection, schedule: Q04DX002 (ip), vehicle: saline",93 % of control
same,T/C,"endpoint: mean survival time, dose: 12.5 mg/kg/injection, schedule: Q04DX002 (ip), vehicle: saline",104 % of control
same,T/C,[9],100 % of control
same,T/C,"endpoint: mean survival time, dose: 25.0 mg/kg/injection, schedule: Q04DX002 (ip), vehicle: saline",93 % of control
same,T/C,[10],88 % of control
COc1cc([NH-])c([NH-])cc1OC.[Cl][Pt+2][Cl],T/C,"endpoint: mean survival time, dose: 1.25 mg/kg/injection, schedule: Q01DX009 (ip), vehicle: saline with Tween-80",103 % of control
same,T/C,"endpoint: mean survival time, dose: 2.5 mg/kg/injection, schedule: Q01DX009 (ip), vehicle: saline with Tween-80",107 % of control
same,T/C,"endpoint: mean survival time, dose: 5.0 mg/kg/injection, schedule: Q01DX009 (ip), vehicle: saline with Tween-80",105 % of control
same,T/C,"endpoint: mean survival time, dose: 10.0 mg/kg/injection, schedule: Q01DX009 (ip), vehicle: saline with Tween-80",106 % of control
same,T/C,"endpoint: mean survival time, dose: 20.0 mg/kg/injection, schedule: Q01DX009 (ip), vehicle: saline with Tween-80",104 % of control and 111 % of control
same,T/C,"endpoint: mean survival time, dose: 40.0 mg/kg/injection, schedule: Q01DX009 (ip), vehicle: saline with Tween-80",107 % of control
same,T/C,"endpoint: mean survival time, dose: 80.0 mg/kg/injection, schedule: Q01DX009 (ip), vehicle: saline with Tween-80",107 % of control
same,T/C,"endpoint: mean survival time, dose: 160.0 mg/kg/injection, schedule: Q01DX009 (ip), vehicle: saline with Tween-80",92 % of control
Cc1noc(C)c1CC1(c2ccccc2)CCCCC1=O (centres undefined),T/C,[1],92 % of control
same,T/C,[2],92 % of control
same,T/C,"endpoint: mean survival time, dose: 400.0 mg/kg/injection, schedule: Q01DX001 (ip), vehicle: Klucel (hydroxypropylcellulose) (HPC)",86 % of control
CO[C@H]1[C@H](O)[C@H](O[C@H]2CC[C@@]3(C)[C@H](CC[C@@H]4[C@@H]3CC[C@]3(C)[C@@H](C5=CC(=O)OC5)CC[C@]43O)C2)O[C@@H](C)[C@@H]1O,T/C,"endpoint: mean survival time, dose: 0.5 mg/kg/injection, schedule: Q01DX001 (ip), vehicle: saline",105 % of control
same,T/C,"endpoint: mean survival time, dose: 1.0 mg/kg/injection, schedule: Q01DX001 (ip), vehicle: saline",105 % of control
same,T/C,"endpoint: mean survival time, dose: 2.0 mg/kg/injection, schedule: Q01DX001 (ip), vehicle: saline",108 % of control
same,T/C,"endpoint: mean survival time, dose: 4.0 mg/kg/injection, schedule: Q01DX001 (ip), vehicle: saline",109 % of control
NC(=O)NC1CCCCCCC1,T/C,[6],102 % of control
same,T/C,[7],100 % of control
same,T/C,[8],110 % of control
CC1(CO)C(O)CCC2(C)C1CCC1CC3CC12CCC3(O)CO (centres undefined),T/C,[11],119 % of control and 102 % of control
same,T/C,"endpoint: mean survival time, dose: 12.5 mg/kg/injection, schedule: Q01DX009 (ip), vehicle: saline with Tween-80",106 % of control and 109 % of control
same,T/C,[12],110 % of control and 111 % of control
same,T/C,[13],118 % of control and 111 % of control
same,T/C,[6],121 % of control and 122 % of control
same,T/C,[7],114 % of control and 102 % of control
Cc1ccc(CCC=O)o1,T/C,[10],100 % of control
same,T/C,[14],100 % of control
same,T/C,[15],100 % of control
OC(Cc1cnc2ccccc2n1)(C(F)(F)F)C(F)(F)F,T/C,[3],94 % of control
same,T/C,[4],98 % of control
same,T/C,[5],103 % of control
O=C(CC(Cl)(C(F)(F)F)C(F)(F)F)c1cccc([N+](=O)[O-])c1,T/C,"endpoint: mean survival time, dose: 12.5 mg/kg/injection, schedule: Q01DX001 (ip), vehicle: saline with Tween-80",103 % of control
same,T/C,[16],100 % of control
same,T/C,[17],97 % of control and 105 % of control
Cc1ccc(/C=N\N=C\c2ccc(C)cc2)cc1,T/C,[3],90 % of control
same,T/C,[5],95 % of control
COc1cc(OC)c(/C=C/c2cc3ccccc3c[n+]2C)c(OC)c1,T/C,"endpoint: mean survival time, dose: 3.13 mg/kg/injection, schedule: Q01DX009 (ip), vehicle: saline with Tween-80",117 % of control
same,T/C,[11],117 % of control
C=C1CC(C)(Cn2cnc3c(N)ncnc32)OC1=O (centres undefined),T/C,"endpoint: median survival time, dose: 6.13 mg/kg/injection, schedule: Q01DX005 (ip), vehicle: water",104 % of control
same,T/C,"endpoint: median survival time, dose: 12.25 mg/kg/injection, schedule: Q01DX005 (ip), vehicle: water",101 % of control
same,T/C,"endpoint: median survival time, dose: 24.5 mg/kg/injection, schedule: Q01DX005 (ip), vehicle: water",103 % of control
same,T/C,"endpoint: median survival time, dose: 49.0 mg/kg/injection, schedule: Q01DX005 (ip), vehicle: water",101 % of control
CNC(=O)NNc1ccccc1,T/C,[3],102 % of control
same,T/C,[4],98 % of control
same,T/C,[5],104 % of control
O=c1c([N+](=O)[O-])c[nH]c2ccccc12,T/C,[14],95 % of control
same,T/C,[15],95 % of control
same,T/C,"endpoint: mean survival time, dose: 400.0 mg/kg/injection, schedule: Q04DX002 (ip), vehicle: saline with Tween-80",103 % of control
Cc1ccc(S(=O)(=O)OC2(c3ccc(C(F)(F)F)cc3)C3CCC2CC3)cc1 (centres undefined),T/C,"endpoint: mean survival time, dose: 12.5 mg/kg/injection, schedule: Q04DX002 (ip), vehicle: saline with Tween-80",104 % of control
same,T/C,[9],101 % of control
same,T/C,[10],104 % of control
C/C(CCC(=O)O)=N\NC(N)=O,T/C,[6],97 % of control
same,T/C,[3],95 % of control
same,T/C,[7],97 % of control
same,T/C,[4],90 % of control
same,T/C,[8],93 % of control
CC(C)C(C)CCC(C)C1CCC2C3CC=C4CC(O)CCC4(C)C3CCC12C (centres undefined),T/C,[16],91 % of control
same,T/C,[17],94 % of control
same,T/C,[18],97 % of control
Nc1ccc2c(c1)C(=O)c1ccccc1C2=O,T/C,[12],98 % of control
same,T/C,[13],98 % of control
same,T/C,[6],101 % of control and 102 % of control
same,T/C,[7],102 % of control
same,T/C,[8],96 % of control
CSc1ccccc1C1=CCCCCC1,T/C,[13],103 % of control
same,T/C,[18],96 % of control
same,T/C,[6],93 % of control
same,T/C,"endpoint: mean survival time, dose: 200.0 mg/kg/injection, schedule: Q01DX001 (ip), vehicle: saline with Tween-80",94 % of control
same,T/C,[7],94 % of control
